Like-named read-outs stand apart in the source and are kept apart here.
What was measured:
[1] = UV-visible spectrophotometric titration with ZnCl2 (metal/ligand stoichiometry); type: binding; conditions: 15 μM ligand; Tris-HCl buffer pH 7.4/organic solvent, per ligand as in Table 3 column Solvent
Experimental: An organic solvent (CH3OH, dioxane or DMSO) was added in order to achieve good solubility of the ligands and metal complexes in the concentrations used in these experiments. Exact proportions of the organic solvent/buffer mixture are specified for each UV-visible characterisation of the different ligands or metal complexes.
Aliquot portions of concentrated CuCl2 or ZnCl2 solutions (M) are added to a 15 μM ligand solution so as to induce only negligible variations in volume. After each addition, changes in absorption spectra are observed immediately and are consistent between two additions, which corresponds to a rapid complexing process. The exact absorption values relating to each ligand and the copper(II) or zinc(II) complexes thereof are detailed hereinafter in the Experimental part (in the Synthesis part for ligands and hereinafter for the metal complexes).
The stoichiometry of the different ligands (L) for Cu(II) or ZN(II) have therefore been determined spectrophotometrically by metal ion titration. In this example, for an M/L ratio increasing from 0 to 1, π→π* with transition, centred at 251 nm for the free ligand, is shifted to a lower energy with a concomitant appearance of an absorption band in the visible region of the spectrum (λmax to 383 nm), which is probably the result of an MLCT transition. For greater M/L ratios, no additional change in the UV-visible absorption spectra is observed.

[2] = Hydrogen peroxide produced by Aβ1-42 in the presence of CuCl2, ascorbate, air and ligand (Amplex Red H2O2/HRP); type: biochemical; conditions: CuCl2 0.4 μM, ascorbate 10 μM, air
[3] = molecular target: T1, copper complexes of Aβ1-42 peptide (Homo sapiens, UniProt P05067); test: as above; type: biochemical; conditions: for amount of H2O2, 0.2 μM Aβ1-42 Cu/Aβ = 2 / amount of H2O2, 0.5 μM Aβ1-42 Cu/Aβ = 0.75: CuCl2 0.4 μM, ascorbate 10 μM, air
T1 construct: The β-amyloid peptide Aβ1-42 (Aβ1-42) was synthesised, purified (to a purity greater than 95%); made in house; host or cells: chemical peptide synthesis (no expression host)
T1 sequence (P05067 672-713 limits assumed, one chain of several): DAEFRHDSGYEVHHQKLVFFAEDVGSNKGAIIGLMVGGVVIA

[4] = Determination of log D7.4 (1-octanol / Tris-HCl buffer); type: physicochemical; conditions: 1-octanol / 20 mM Tris-HCl buffer containing 150 mM NaCl (pH = 7.4) (1/1, v/v)
Method in brief: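 Ligand partitioned between 1-octanol and 20 mM Tris-HCl pH 7.4 with 150 mM NaCl: vortexed 3 min at ambient temperature, centrifuged, each phase quantified by UV-visible spectrophotometry. log D7.4 is log of octanol/buffer concentration ratio, measured three times.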

[5] = tested on: Salmonella tiphimurium TA100; test: AMES test, TA100
Description: AMES test: The method is adapted from D. M. Maron and B. N. Ames, Mutat.
The test involves evaluating the potential of the tested molecules to induce mutation which is reverse to the histidine locus of these lines. These two lines were provided by Dr. Bruce N. Ames (University of California, Berkeley, USA). They are resistant to Ampicillin and sensitive to Tetracycline. They are not mutant toward rfa, UvγV and UvγA. The line TA98 (his D3052) contains a mutation of reading phase (GC) whereas the line TA100 (his G46) contains a substitution of base pair (GC).
The compounds to be tested were dissolved in 100% of DMSO (the solvent) and diluted logarithmically (by a factor of 10) so as to obtain 4 test concentrations of 30,000; 3,000; 300 and 30 μg/ml. Each series of 0.1 ml of stock solution to be tested, 0.1 ml of test line and of culture medium with or without 0.5 ml of enzymatic homogenate (S9) of rat liver microsome were mixed with 2 ml of molten agarose (containing 0.5 mM of histidine and 0.5 mM of biotin). This mixture was placed on the surface of a plate of minimal agarose glucose medium (30 ml for each Petri dish) so as to obtain final concentrations of compound to be tested of 3,000; 300; 30 and 3 μγ/plate. The plates were then incubated at 37° C. for 48 hours. […] The revertant colonies of the test lines were counted using a colony counter (Sigma). […] A compound inducing a number of colonies <50% of cells obtained for the solvent alone was deemed to be toxic for the bacteria tested. All the experiments were carried out in triplicate.

[6] = Competition reaction between ligand (Ls), CuCl2 and competing chelator (Lc), UV-visible; affinity constants; conditions: for % MLs: Cu(II), EDTA as Lc, 1/1/1 at 15 μM; for number of Lc equivalents making it possible to form 50% of CuLs, Lc = EDTA: mixture of Ls (15 μM, 1 equivalent) and CuCl2 (1/1, mol/mol)
Experimental: An organic solvent (CH3OH, dioxane or DMSO) was added in order to achieve good solubility of all the ligands and metal complexes in the concentrations used in these experiments. Monitoring has shown that all the ligands and metal complexes examined yield results corresponding to the Beer-Lambert Law in the experimental conditions used.
Lc competing chelators were selected to provide a range of stability constants for the metal ion M presenting intervals of approximately one or two log units, as well as to make it possible for each competition experiment to quantify one of the Ls, MLs, Lcc or MLc species with a UV-vis spectrum wavelength without contaminating the three other species (FIG. 7). […] As the concentration [MLs]=x % of C is measured on the UV-visible spectra, the concentrations [Ls]=(1−x) % of C, [MLc]=(1−x) % of C and [Lc]=x % of C can be deduced therefrom and:
In these conditions, [MLs]=[MLc]; [MLs]+[Lc]=Y, y≧50 and:

[7] = value per plate, Addition of S9: no
[8] = value per plate, Addition of S9: yes
[9] = Ls/CuCl2/Lc 1/1/1 at 15 μM, solvent per ligand as in Table 3

SMILES | Complex observed by titration with Zn^II (observed L/Zn(II) stoichiometry) [1] | amount of H2O2, without Aβ1-42 ([2]; ligand 1 eq/Cu(II) (0.4 μM)) [nmol] | amount of H2O2, 0.2 μM Aβ1-42 Cu/Aβ = 2 ([3]; ligand 1 eq/Cu(II) (0.4 μM)) [nmol] | amount of H2O2, 0.5 μM Aβ1-42 Cu/Aβ = 0.75 ([3]; ligand 1 eq/Cu(II) (0.4 μM)) [nmol] | logD at 3 min [4] | TA100 Cytotoxicity [5, 7] [µg] | TA100 Cytotoxicity [5, 8] [µg] | TA100 Mutagenic effect [5, 8] [µg] | percentage of the CuLs species at equilibrium, competing ligand EDDA [6, 9] [%] | percentage of the CuLs species at equilibrium, competing ligand EDTA [6, 9] [%] | percentage of the CuLs species at equilibrium, competing ligand HIDA [6, 9] [%] | number of Lc equivalents making it possible to form 50% of CuLs, Lc = EDTA [6] [eq] | log D7.4 [4] | also measured
CC(C)(c1ccc2cccc(O)c2n1)c1ccc2cccc(O)c2n1 [Compound 3, 2,2′-(2,2-propanediyl)-bis(8-hydroxyquinoline)] | LZn^II(1/1) | 0.84 | 0.71 ± 0.02 | 0.55 | 4.4 ± 0.1 | >3000 | >3000 | >3000 | 100 | 50 | 100 | 1 | – | amount of H2O2, without Aβ1-42 ([2]; ligand 0.5 eq/Cu(II)): 2.12 nmol; H2O2 production as a function of the Cu/Aβ1-42 ratio ([3]; FIG. 11, 1 equivalent of ligand per Cu(II) (0.4 μM), Aβ1-42 0.2 to 0.53 μM): virtually inhibit H2O2 production; amount of H2O2, 0.2 μM Aβ1-42 Cu/Aβ = 2 ([3]; ligand 0.5 eq/Cu(II)): 0.94 nmol; amount of H2O2, 0.2 μM Aβ1-42 Cu/Aβ = 2 ([3]; ligand 1.5 eq/Cu(II)): 0.49 nmol; TA100 Mutagenic effect [5, 7]: >3000 µg; % MLs ([6]; Buffer/CH3OH (1/1)): 50%; % MLs ([6]; Buffer/DMSO (2/8)): 55%; % MLs ([6]; Buffer/dioxane (1/1)): 45%; percentage of the CuLs species at equilibrium, competing ligand CTDA [6, 9]: 15%; percentage of the CuLs species at equilibrium, competing ligand EDA [6, 9]: 100%; percentage of the CuLs species at equilibrium, competing ligand Tetren [6, 9]: 0%; percentage of the CuLs species at equilibrium, competing ligand Trien [6, 9]: 30%; percentage of the CuLs species at equilibrium, competing ligand biPy [6, 9]: 100%
c1cnc2c(Nc3cccc4cccnc34)cccc2c1 [Compound 12, Bis(8-quinoline)amine] | LZn^II(1/1) | 0.40 | 0.47 ± 0.09 | – | – | >3000 | >3000 | – | – | 55 | – | – | 3.5 ± 0.1 | TA100 Mutagenic effect [5]: >3000 µg
CC(C)(c1ccc2c(Cl)ccc(O)c2n1)c1ccc2c(Cl)ccc(O)c2n1 [Compound 4, 2,2′-(2,2-Propanediyl)-bis(5-chloro-8-hydroxyquinoline)] | LZn^II(1/1) | 0.12 | 0.37 ± 0.09 | 0.35 | 4.9 ± 0.1 | – | – | – | 90 | 40 | 100 | 0.65 | – | –
Oc1cccc2ccc(C(F)(F)c3ccc4cccc(O)c4n3)nc12 [Compound 5, 2,2′-(Difluoromethanediyl)-bis(8-hydroxyquinoline)] | LZn^II(1/1) | 0.39 | 0.55 ± 0.08 | – | 3.8 ± 0.1 | 300 | >3000 | >3000 | – | 45 | – | – | – | bactericidal effect ([5]; TA100 line in the absence of S9): ≥ 300 μg/plate
O=C(c1ccc2cccc(O)c2n1)c1ccc2cccc(O)c2n1 [Compound 6, Bis(8-hydroxy-2-quinoline)methanone] | LZn^II(1/1) | 0.82 | 0.86 ± 0.11 | – | – | – | – | – | – | 75 | – | – | 3.9 ± 0.1 | –

Source: patent publication US20120277265A1, “NOVEL POLYQUINOLINE DERIVATIVES AND THE THERAPEUTIC USE THEREOF” (CENTRE NATIONAL DE LA RECHERCHE SCIENTIFIQUE (C.N.R.S.), priority 2005, published 2012)
